{
  "source": "PubChem BioAssay AID2060625",
  "about": "(Molecular Pharmacology Branch, DTP, NCI, 2025)",
  "test_system": "186277-243-T-J2-PDC spheroids with HUVEC/MSC, viability",
  "experiment": "Anticancer human tumor 186277-243-T-J2-PDC patient-derived colon adenocarcinoma cell line growth inhibition [CLK]",
  "details": "for pIC50: curve of first compound; for viability, T/C: stronger effect = lower value",
  "summary_of_the_method": "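Multi-cell-type spheroids combined patient-derived tumor cells with HUVEC endothelial cells and human mesenchymal stem cells. Paired agents were dosed in half-log steps down from about clinical Cmax, or from 10 microM where Cmax was unknown.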",
  "note": "pIC50: −log10 of the molar value.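 Further: compound exposure lasted seven days before readout.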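 Wherever viability, T/C is given: 100% = DMSO vehicle control wells.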",
  "data": [
    {"smiles": "CC(=O)O[C@H]1C(=O)[C@@]2(C)[C@H]([C@H](OC(=O)c3ccccc3)[C@]3(O)C[C@H](OC(=O)[C@H](O)[C@@H](NC(=O)c4ccccc4)c4ccccc4)C(C)=C1C3(C)C)[C@]1(OC(C)=O)CO[C@@H]1C[C@@H]2O", "note": "+ CN1CCN(c2cc(C(=O)Nc3cc4cc(-c5cnn(C)c5)ccc4cn3)ccn2)CC1", "values": [
      {"measurement": "pIC50", "setting": "second compound 0.0316 µM", "result": "> 7.50"},
      {"measurement": "pIC50", "setting": "second compound 0.1 µM", "result": "> 7.50"},
      {"measurement": "pIC50", "setting": "second compound 0.316 µM", "result": "> 7.50"},
      {"measurement": "pIC50", "setting": "second compound 1 µM", "result": "> 7.50"},
      {"measurement": "pIC50", "setting": "second compound 3.16 µM", "result": "> 7.50"},
      {"measurement": "pIC50", "setting": "second compound 10 µM", "result": "> 7.50"},
      {"measurement": "viability, T/C", "setting": "second compound 0.0316 µM, first compound 0.0316 µM", "result": 15.6, "unit": "%"},
      {"measurement": "viability, T/C", "setting": "second compound 0.0316 µM, first compound 0.1 µM", "result": 13.7, "unit": "%"},
      {"measurement": "viability, T/C", "setting": "second compound 0.0316 µM, first compound 0.316 µM", "result": 8.66, "unit": "%"},
      {"measurement": "viability, T/C", "setting": "second compound 0.0316 µM, first compound 1 µM", "result": 12.4, "unit": "%"},
      {"measurement": "viability, T/C", "setting": "second compound 0.0316 µM, first compound 3.16 µM", "result": 9.25, "unit": "%"},
      {"measurement": "viability, T/C", "setting": "second compound 0.0316 µM, first compound 10 µM", "result": 8.97, "unit": "%"},
      {"measurement": "viability, T/C", "setting": "second compound 0.1 µM, first compound 0.0316 µM", "result": 14.4, "unit": "%"},
      {"measurement": "viability, T/C", "setting": "second compound 0.1 µM, first compound 0.1 µM", "result": 14.6, "unit": "%"},
      {"measurement": "viability, T/C", "setting": "second compound 0.1 µM, first compound 0.316 µM", "result": 11.3, "unit": "%"},
      {"measurement": "viability, T/C", "setting": "second compound 0.1 µM, first compound 1 µM", "result": 11.4, "unit": "%"},
      {"measurement": "viability, T/C", "setting": "second compound 0.1 µM, first compound 3.16 µM", "result": 10.2, "unit": "%"},
      {"measurement": "viability, T/C", "setting": "second compound 0.1 µM, first compound 10 µM", "result": 10.2, "unit": "%"},
      {"measurement": "viability, T/C", "setting": "second compound 0.316 µM, first compound 0.0316 µM", "result": 13.3, "unit": "%"},
      {"measurement": "viability, T/C", "setting": "second compound 0.316 µM, first compound 0.1 µM", "result": 13.2, "unit": "%"},
      {"measurement": "viability, T/C", "setting": "second compound 0.316 µM, first compound 0.316 µM", "result": 12.5, "unit": "%"},
      {"measurement": "viability, T/C", "setting": "second compound 0.316 µM, first compound 1 µM", "result": 12.5, "unit": "%"},
      {"measurement": "viability, T/C", "setting": "second compound 0.316 µM, first compound 3.16 µM", "result": 13.6, "unit": "%"},
      {"measurement": "viability, T/C", "setting": "second compound 0.316 µM, first compound 10 µM", "result": 12.1, "unit": "%"},
      {"measurement": "viability, T/C", "setting": "second compound 1 µM, first compound 0.0316 µM", "result": 2.45, "unit": "%"},
      {"measurement": "viability, T/C", "setting": "second compound 1 µM, first compound 0.1 µM", "result": 1.65, "unit": "%"},
      {"measurement": "viability, T/C", "setting": "second compound 1 µM, first compound 0.316 µM", "result": 0.61, "unit": "%"},
      {"measurement": "viability, T/C", "setting": "second compound 1 µM, first compound 1 µM", "result": 3.85, "unit": "%"},
      {"measurement": "viability, T/C", "setting": "second compound 1 µM, first compound 3.16 µM", "result": 1.22, "unit": "%"},
      {"measurement": "viability, T/C", "setting": "second compound 1 µM, first compound 10 µM", "result": 0.69, "unit": "%"},
      {"measurement": "viability, T/C", "setting": "second compound 3.16 µM, first compound 0.0316 µM", "result": 0.85, "unit": "%"},
      {"measurement": "viability, T/C", "setting": "second compound 3.16 µM, first compound 0.1 µM", "result": 1.39, "unit": "%"},
      {"measurement": "viability, T/C", "setting": "second compound 3.16 µM, first compound 0.316 µM", "result": 0.92, "unit": "%"},
      {"measurement": "viability, T/C", "setting": "second compound 3.16 µM, first compound 1 µM", "result": 2.55, "unit": "%"},
      {"measurement": "viability, T/C", "setting": "second compound 3.16 µM, first compound 3.16 µM", "result": 2.07, "unit": "%"},
      {"measurement": "viability, T/C", "setting": "second compound 3.16 µM, first compound 10 µM", "result": 1.24, "unit": "%"},
      {"measurement": "viability, T/C", "setting": "second compound 10 µM, first compound 0.0316 µM", "result": 1.95, "unit": "%"},
      {"measurement": "viability, T/C", "setting": "second compound 10 µM, first compound 0.1 µM", "result": 3.43, "unit": "%"},
      {"measurement": "viability, T/C", "setting": "second compound 10 µM, first compound 0.316 µM", "result": 0.65, "unit": "%"},
      {"measurement": "viability, T/C", "setting": "second compound 10 µM, first compound 1 µM", "result": 0.96, "unit": "%"},
      {"measurement": "viability, T/C", "setting": "second compound 10 µM, first compound 3.16 µM", "result": 1.3, "unit": "%"},
      {"measurement": "viability, T/C", "setting": "second compound 10 µM, first compound 10 µM", "result": 0.72, "unit": "%"}
    ]}
  ]
}
